According to patent US12310948B2, “Application of monocyclic β-lactam compound in pharmacy” (SHENZHEN OPTIMUM BIOLOGICAL TECHNOLOGY CO., LTD, priority 2018, dated 2025):
Marks after values point to notes of the source that are not given here.

Columns and labels:
[1] = test system: Pseudomonas aeruginosa PA14; assay: Pulmonary Pseudomonas aeruginosa infection in immunosuppressive mice: lung bacterial load; type: in vivo; conditions: for LOG10 of Bacterial load: lung tissue 24 h after infection, immunosuppressed CD-1 mice, ip at 2 h, 4 h, 6 h, 8 h
Procedure: Pseudomonas aeruginosa PA14.
(§1) 46 female CD-1 (ICR) mice, supplied by Beijing Vital River Laboratory Animal Technology Co., Ltd., body weight of 23-27 g, 7 weeks old.
46 immunosuppressive mice were formed by intraperitoneal injection of cyclophosphamide 150 mg/kg on day 1 and day 4.
Seven groups were set up, including high, medium and low dose groups of compound represented by formula (I), high and medium-dose groups of compound I-g, aztreonam group and model group; there were 6 animals in each group, the other 4 animals were subjected to pulmonary infection for 2 h, and the lung tissues were removed to count the bacterial load. See the table below for specific grouping.
Mice were injected intratracheally with 50 μL of bacterial fluid (2×10^3 CFU). Four model mice were sacrificed 2 h after infection.
2 h after infection, the mice were injected intraperitoneally once at 2 h, 4 h, 6 h and 8 h according to the groups, for a total of 4 times.
24 h after infection, the mice in each group were sacrificed by cervical dislocation, and the lung and kidney tissues were removed aseptically, then placed into sterilized homogenate tube, weighed, added with proper amount of normal saline (NS), and homogenized by a homogenizer for 1 min; the lung tissues in model group were diluted 10^4, 10^5, and 10^6-fold, the lung tissues in each administration group were diluted 10 and 100-fold, the kidney tissues in model group were diluted 10^2, 10^3, and 10^4-fold, and the lung tissues in each administration group were diluted 10-fold; the serial diluents were plated onto TSA plates with a spiral coater, and incubated overnight at 37° C. to determine CFU counts with a colony counter.
(§2) CFU scatter plots of lung tissue were made using Graphpad Prism mapping software. The average CFU and body weight were calculated by SPSS 19.0 software, and the differences between groups were analyzed by variance analysis.
Mice were injected intraperitoneally with compounds of formula (I), compound I-g and aztreonam at 2 h, 4 h, 6 h and 8 h after infection; animals were sacrificed at 24 h, lung tissues were removed aseptically, immersed in normal saline (NS), homogenized, diluted appropriately, and then 50 μL of diluents were evenly plated onto TSA plates; the plates were incubated overnight in a 37° C. incubator to count the number of colonies, which was converted to CFU per milliliter by a dilution ratio, and logarithmic value of the bacterial load was calculated of base 10, and the mean and standard deviation were compared in each group.

[2] = Animal body weight in the in vivo protection test (pulmonary infection in mice); conditions: for Weight on day 1 / Weight on day 4 / Weight on day 5: ip
Procedure: as §1
The mice were weighed each day after the start of the test and body weight changes were recorded.
as §2

Structure (SMILES): CC1(C)[C@H](NC(=O)/C(=N\O[C@@H](COc2ccc3c(c2)CN(C(=N)N(CCCN)CCCN)C3)C(=O)O)c2csc(N)n2)C(=O)N1OS(=O)(=O)O [Compound represented by formula (I)]
- Elimination of the bacteria infected on the lung (in words) ([1]; at the lowest dose): completely eliminated
- Elimination of bacterial load in lung tissue (in words) ([1]; high, middle and low-dose groups, 24 h after infection): completely eliminated
- LOG10 of Bacterial load ([1]; total dose 60 mg/kg day): 0**
- LOG10 of Bacterial load ([1]; total dose 120 mg/kg day): 0**
- LOG10 of Bacterial load ([1]; total dose 200 mg/kg day): 0**
- Weight on day 1 ([2]; 60 mg/kg day group): 26.14 ± 1.21 g
- Weight on day 4 ([2]; 60 mg/kg day group): 27.76 ± 0.43 g
- Weight on day 5 ([2]; 60 mg/kg day group): 26.77 ± 1.02 g
- Weight on day 1 ([2]; 120 mg/kg day group): 26.47 ± 1.65 g
- Weight on day 4 ([2]; 120 mg/kg day group): 28.33 ± 1.14 g
- Weight on day 5 ([2]; 120 mg/kg day group): 28.01 ± 1.35 g
- Weight on day 1 ([2]; 200 mg/kg day group): 26.91 ± 1.03 g
- Weight on day 4 ([2]; 200 mg/kg day group): 28.03 ± 2.15 g
- Weight on day 5 ([2]; 200 mg/kg day group): 25.40 ± 2.75 g
- Safety conclusion from body weight (in words) ([2]; administration group): safe

Structure (SMILES): C[C@H]1[C@H](NC(=O)/C(=N\OC(C)(C)C(=O)O)c2csc(N)n2)C(=O)N1S(=O)(=O)O [Aztreonam, aztreonam, reference compound]
- LOG10 of Bacterial load ([1]; total dose 400 mg/kg day): 1.62 ± 2.22
- Weight on day 1 ([2]; 400 mg/kg day group): 27.16 ± 1.74 g
- Weight on day 4 ([2]; 400 mg/kg day group): 27.80 ± 2.37 g
- Weight on day 5 ([2]; 400 mg/kg day group): 28.02 ± 1.08 g

Structure (SMILES): CC1(C)[C@H](NC(=O)/C(=N\O[C@@H](COc2ccc(C(=N)N[C@@H]3CCCNC3)cc2)C(=O)O)c2csc(N)n2)C(=O)N1OS(=O)(=O)O [I-g, reference compound]
- LOG10 of Bacterial load ([1]; total dose 120 mg/kg day): 1.58 ± 2.45
- LOG10 of Bacterial load ([1]; total dose 200 mg/kg day): 0**
- Weight on day 1 ([2]; 120 mg/kg day group): 27.02 ± 1.12 g
- Weight on day 4 ([2]; 120 mg/kg day group): 28.21 ± 1.16 g
- Weight on day 5 ([2]; 120 mg/kg day group): 27.20 ± 0.96 g
- Weight on day 1 ([2]; 200 mg/kg day group): 27.25 ± 1.14 g
- Weight on day 4 ([2]; 200 mg/kg day group): 28.39 ± 1.60 g
- Weight on day 5 ([2]; 200 mg/kg day group): 26.43 ± 1.06 g
